Reference: PMC6553790 (PLoS Pathogens, 2019)
“Also recorded” adds a separate entry of the source.

Each compound was assayed on P. falciparum Cam3.II lines (assay: Isobologram analyses (fixed-ratio drug combinations)). Details: across asynchronous parasites, early rings and trophozoites.
Type: cell-based, Plasmodium falciparum
Protocol: Assays were performed with fixed ratios of drug combinations (1:0, 4:1, 2:1, 1:1, 1:2, 1:4, and 0:1), tested in duplicate. Combinations were prepared from 16×IC50 drug stocks and tested across a range of two-fold dilutions. Assays were conducted with asynchronous cultures exposed for 72 hr or with tightly synchronized rings or trophozoites (tested at 0–3 hr or 24–27 hr post-invasion, respectively) exposed for 3 hr. Post-pulse drug washouts were conducted as described above for in vitro determination of IC50 levels. IC50 values were derived for each compound tested alone, and fractional IC50 (FIC50) values were determined for each compound tested in combination (FIC50 = […]) and plotted for each drug combination. For each combination, the mean of the sums of FIC50 values at each combination (mean ΣFIC50) was also calculated and the results illustrated using heat maps.

Structure (SMILES)	Interaction with WLL or WLW
O=C1C(O)=C([C@H]2CC[C@H](c3ccc(Cl)cc3)CC2)C(=O)c2ccccc21 [ATQ, atovaquone]	Additive to antagonistic; also recorded: antagonism observed in asynchronous parasites and early rings was attenuated in trophozoites

Same assay, conditions: asynchronous parasites and trophozoites

Structure (SMILES)	Interaction with WLW (isobologram)
CC1(C)C(N(O)C(=O)Nc2ccc(Cl)cc2)N(c2ccc(Cl)cc2)C(=O)N1CC(=O)N/N=C/C=C/c1ccc([N+](=O)[O-])o1 (centres unmarked) [ESI, eeyarestatin I]	additive

Same assay, conditions: asynchronous parasites, 72 hr

Structure (SMILES)	Interaction with WLL or WLW
O=C(CC1NCCCC1O)Cn1cnc2cc(Br)c(Cl)cc2c1=O (centres unmarked) [HFG, halofuginone]	antagonism
Cc1cc(Nc2ccc(S(F)(F)(F)(F)F)cc2)n2nc(C(C)(F)F)nc2n1 [DSM265]	antagonism

Same assay, conditions: asynchronous parasites, rings and trophozoites (S1 Fig)

Structure (SMILES)	Interaction with WLL (isobologram)
CC1(C)C(N(O)C(=O)Nc2ccc(Cl)cc2)N(c2ccc(Cl)cc2)C(=O)N1CC(=O)N/N=C/C=C/c1ccc([N+](=O)[O-])o1 (centres unmarked) [ESI, eeyarestatin I]	largely additive

Same assay, conditions: combined with WLL; Asynchronous, 72 hr; Cam3.II K13C580Y

Structure (SMILES)	Mean of the sums of FIC50 (mean ΣFIC50)
O=C(CC1NCCCC1O)Cn1cnc2cc(Br)c(Cl)cc2c1=O (centres unmarked) [HFG, halofuginone]	1.46
Cc1cc(Nc2ccc(S(F)(F)(F)(F)F)cc2)n2nc(C(C)(F)F)nc2n1 [DSM265]	1.46
O=C1C(O)=C([C@H]2CC[C@H](c3ccc(Cl)cc3)CC2)C(=O)c2ccccc21 [ATQ, atovaquone]	1.22
CC1(C)C(N(O)C(=O)Nc2ccc(Cl)cc2)N(c2ccc(Cl)cc2)C(=O)N1CC(=O)N/N=C/C=C/c1ccc([N+](=O)[O-])o1 (centres unmarked) [ESI, eeyarestatin I]	1.29

Same assay, conditions: combined with WLL; Asynchronous, 72 hr; Cam3.II K13WT

Structure (SMILES)	Mean of the sums of FIC50 (mean ΣFIC50)
O=C(CC1NCCCC1O)Cn1cnc2cc(Br)c(Cl)cc2c1=O (centres unmarked) [HFG, halofuginone]	1.47
Cc1cc(Nc2ccc(S(F)(F)(F)(F)F)cc2)n2nc(C(C)(F)F)nc2n1 [DSM265]	1.34
O=C1C(O)=C([C@H]2CC[C@H](c3ccc(Cl)cc3)CC2)C(=O)c2ccccc21 [ATQ, atovaquone]	1.33
CC1(C)C(N(O)C(=O)Nc2ccc(Cl)cc2)N(c2ccc(Cl)cc2)C(=O)N1CC(=O)N/N=C/C=C/c1ccc([N+](=O)[O-])o1 (centres unmarked) [ESI, eeyarestatin I]	1.28

Same assay, conditions: combined with WLL; Rings, 3 hr exposure; Cam3.II K13C580Y

Structure (SMILES)	Mean of the sums of FIC50 (mean ΣFIC50)
O=C1C(O)=C([C@H]2CC[C@H](c3ccc(Cl)cc3)CC2)C(=O)c2ccccc21 [ATQ, atovaquone]	1.54
CC1(C)C(N(O)C(=O)Nc2ccc(Cl)cc2)N(c2ccc(Cl)cc2)C(=O)N1CC(=O)N/N=C/C=C/c1ccc([N+](=O)[O-])o1 (centres unmarked) [ESI, eeyarestatin I]	1.09

Same assay, conditions: combined with WLL; Rings, 3 hr exposure; Cam3.II K13WT

Structure (SMILES)	Mean of the sums of FIC50 (mean ΣFIC50)
O=C1C(O)=C([C@H]2CC[C@H](c3ccc(Cl)cc3)CC2)C(=O)c2ccccc21 [ATQ, atovaquone]	1.64
CC1(C)C(N(O)C(=O)Nc2ccc(Cl)cc2)N(c2ccc(Cl)cc2)C(=O)N1CC(=O)N/N=C/C=C/c1ccc([N+](=O)[O-])o1 (centres unmarked) [ESI, eeyarestatin I]	1.05

Same assay, conditions: combined with WLL; Trophozoites, 3 hr exposure; Cam3.II K13C580Y

Structure (SMILES)	Mean of the sums of FIC50 (mean ΣFIC50)
O=C1C(O)=C([C@H]2CC[C@H](c3ccc(Cl)cc3)CC2)C(=O)c2ccccc21 [ATQ, atovaquone]	0.99
CC1(C)C(N(O)C(=O)Nc2ccc(Cl)cc2)N(c2ccc(Cl)cc2)C(=O)N1CC(=O)N/N=C/C=C/c1ccc([N+](=O)[O-])o1 (centres unmarked) [ESI, eeyarestatin I]	1.05

Same assay, conditions: combined with WLL; Trophozoites, 3 hr exposure; Cam3.II K13WT

Structure (SMILES)	Mean of the sums of FIC50 (mean ΣFIC50)
O=C1C(O)=C([C@H]2CC[C@H](c3ccc(Cl)cc3)CC2)C(=O)c2ccccc21 [ATQ, atovaquone]	1.11
CC1(C)C(N(O)C(=O)Nc2ccc(Cl)cc2)N(c2ccc(Cl)cc2)C(=O)N1CC(=O)N/N=C/C=C/c1ccc([N+](=O)[O-])o1 (centres unmarked) [ESI, eeyarestatin I]	1.19

Same assay, conditions: combined with WLW; Asynchronous, 72 hr; Cam3.II K13C580Y

Structure (SMILES)	Mean of the sums of FIC50 (mean ΣFIC50)
O=C(CC1NCCCC1O)Cn1cnc2cc(Br)c(Cl)cc2c1=O (centres unmarked) [HFG, halofuginone]	1.53
Cc1cc(Nc2ccc(S(F)(F)(F)(F)F)cc2)n2nc(C(C)(F)F)nc2n1 [DSM265]	1.30
O=C1C(O)=C([C@H]2CC[C@H](c3ccc(Cl)cc3)CC2)C(=O)c2ccccc21 [ATQ, atovaquone]	1.16
CC1(C)C(N(O)C(=O)Nc2ccc(Cl)cc2)N(c2ccc(Cl)cc2)C(=O)N1CC(=O)N/N=C/C=C/c1ccc([N+](=O)[O-])o1 (centres unmarked) [ESI, eeyarestatin I]	0.97

Same assay, conditions: combined with WLW; Asynchronous, 72 hr; Cam3.II K13WT

Structure (SMILES)	Mean of the sums of FIC50 (mean ΣFIC50)
O=C(CC1NCCCC1O)Cn1cnc2cc(Br)c(Cl)cc2c1=O (centres unmarked) [HFG, halofuginone]	1.42
Cc1cc(Nc2ccc(S(F)(F)(F)(F)F)cc2)n2nc(C(C)(F)F)nc2n1 [DSM265]	1.24
O=C1C(O)=C([C@H]2CC[C@H](c3ccc(Cl)cc3)CC2)C(=O)c2ccccc21 [ATQ, atovaquone]	1.28
CC1(C)C(N(O)C(=O)Nc2ccc(Cl)cc2)N(c2ccc(Cl)cc2)C(=O)N1CC(=O)N/N=C/C=C/c1ccc([N+](=O)[O-])o1 (centres unmarked) [ESI, eeyarestatin I]	0.98

Same assay, conditions: combined with WLW; Rings, 3 hr exposure; Cam3.II K13C580Y

Structure (SMILES)	Mean of the sums of FIC50 (mean ΣFIC50)
O=C1C(O)=C([C@H]2CC[C@H](c3ccc(Cl)cc3)CC2)C(=O)c2ccccc21 [ATQ, atovaquone]	1.20
CC1(C)C(N(O)C(=O)Nc2ccc(Cl)cc2)N(c2ccc(Cl)cc2)C(=O)N1CC(=O)N/N=C/C=C/c1ccc([N+](=O)[O-])o1 (centres unmarked) [ESI, eeyarestatin I]	0.80

Same assay, conditions: combined with WLW; Rings, 3 hr exposure; Cam3.II K13WT

Structure (SMILES)	Mean of the sums of FIC50 (mean ΣFIC50)
O=C1C(O)=C([C@H]2CC[C@H](c3ccc(Cl)cc3)CC2)C(=O)c2ccccc21 [ATQ, atovaquone]	1.17
CC1(C)C(N(O)C(=O)Nc2ccc(Cl)cc2)N(c2ccc(Cl)cc2)C(=O)N1CC(=O)N/N=C/C=C/c1ccc([N+](=O)[O-])o1 (centres unmarked) [ESI, eeyarestatin I]	0.73

Same assay, conditions: combined with WLW; Trophozoites, 3 hr exposure; Cam3.II K13C580Y

Structure (SMILES)	Mean of the sums of FIC50 (mean ΣFIC50)
O=C1C(O)=C([C@H]2CC[C@H](c3ccc(Cl)cc3)CC2)C(=O)c2ccccc21 [ATQ, atovaquone]	1.07
CC1(C)C(N(O)C(=O)Nc2ccc(Cl)cc2)N(c2ccc(Cl)cc2)C(=O)N1CC(=O)N/N=C/C=C/c1ccc([N+](=O)[O-])o1 (centres unmarked) [ESI, eeyarestatin I]	1.08

Same assay, conditions: combined with WLW; Trophozoites, 3 hr exposure; Cam3.II K13WT

Structure (SMILES)	Mean of the sums of FIC50 (mean ΣFIC50)
O=C1C(O)=C([C@H]2CC[C@H](c3ccc(Cl)cc3)CC2)C(=O)c2ccccc21 [ATQ, atovaquone]	1.02
CC1(C)C(N(O)C(=O)Nc2ccc(Cl)cc2)N(c2ccc(Cl)cc2)C(=O)N1CC(=O)N/N=C/C=C/c1ccc([N+](=O)[O-])o1 (centres unmarked) [ESI, eeyarestatin I]	0.97

Same assay, conditions: early ring stage

Structure (SMILES)	Interaction with WLW (isobologram)
CC1(C)C(N(O)C(=O)Nc2ccc(Cl)cc2)N(c2ccc(Cl)cc2)C(=O)N1CC(=O)N/N=C/C=C/c1ccc([N+](=O)[O-])o1 (centres unmarked) [ESI, eeyarestatin I]	Mild synergy
